In assay [1] the test system is creatinine iminohydrolase. Put plainly: Creatinine iminohydrolase activity, Small-scale Enzyme Production (Procedure 2; GDH assay). The assay is classed as cell-based, ATCC 31546 (tentatively Flavobacterium filamentosum). Particulars: for creatinine iminohydrolase yield of microbial cells (in words) / growth of the culture and enzyme production (in words): carbon source; for growth of the culture and enzyme production (in words): Example 2; for Optimum Concentration (carbon source): concentration which produced the highest creatinine iminohydrolase activity, Table II; for optimum concentration: fumaric acid as carbon source and creatinine varied simultaneously, Example 3. As to the method:
(§1) A fresh sample of culture grown for two days on Medium No. 1 slants as described in Procedure 1 above was obtained. From this slant, a loopful of culture was inoculated into 25 ml of a microbial growth medium of the type employed in the present invention contained in a 250 ml Erlenmeyer flask. The microbial growth medium employed consisted of Tryp-Soy Broth, referred to hereinabove. Following inoculation of the culture into the Erlenmeyer flask, the flask was shaken at 200 rpm at 30° C. for eight hours to produce good cellular growth without lysis of the microbial cells. Thereafter, a sample of the contents of the flask was microscopically inspected for culture purity and then aseptically centrifuged at 15,000 xg in a refrigerated centrifuge (available from DuPont Instruments, Newton, CT) for 15 minutes to separate the cells from the Tryp-Soy Broth. The supernatant containing the Tryp-Soy Broth was discarded, and the solid material containing the precipitated microbial cells was then re-suspendedin a volume of sterile distilled water equal to that present before centrifugation. 2 ml of this latter suspension was then used as an inoculum for a 250 ml Erlenmeyer flask containing 25 ml of a production medium to obtain further cell growth and to promote enzyme production by the microorganism. The specific composition of the production medium was varied as described in the following examples. However, in each case, once the microorganism was transferred as a 2-ml inoculum to the flask containing the particular production medium of interest, the flask was shaken at 30° C., 200 rpm for 10 hours. Thereafter, samples of the culture were withdrawn, diluted and dry-cell weight was determined. In addition, a 2.5 ml aliquot of the culture was centrifuged at 15,000 xg in a refrigerated centrifuge to separate the cells from the production medium. The supernatant containing the production medium was discarded. The precipitated cells were disrupted as in Procedure 4 below, and enzyme activity was assayed as described in Procedure 5 below.
(§2) 0.2 ml of an enzyme solution and 0.4 ml of cell suspension were added to 1.4 ml of 0.05 M tris(hydroxymethyl)aminomethane (tris) buffer, pH 8.5, and 10^-3 M (ethylenedinitrilo)tetraacetic acid, dipotassium salt (K2 EDTA). The aforementioned enzyme solution contained per ml of deionized water: 2.5 mg lysozyme, 1 mg bovine pancreatic deoxyribonuclease, and 1 mg bovine pancreatic ribonuclease. The amount of cell suspension was adjusted to give a final optical density of about 1.0, and the final volume was made to 2.0 ml with tris buffer. The suspension was shaken in a water bath at 37° C. for 20 minutes. The cell debris was removed by centrifugation at 27,000 xg in a refrigerated centrifuge, and the supernatant was assayed for enzyme activity as described in Procedure 5 below.
To determine the creatinine iminohydrolase activity described in the Examples, a L-glutamic dehydrogenase, "GDH", assay method was employed. In the GDH assay method, production of ammonia from creatinine, which represents the activity of a creatinine iminohydrolase enzyme preparation,is measured using NADPH (nicotinamide-adenine dinucleotride phosphate, reduced form) in a GDH-catalyzed reaction as follows:
Creatinine is hydrolyzed to ammonia via the unknown activity of a creatinine iminohydrolase sample, and the resultant ammonia reacts with the reagent α-ketoglutaric acid in the presence of GDH as catalyst to produce glutamic acid. The latter reaction catalyzed by GDH uses the NADPH oxidation reaction (NADPH→NADP), the disappearance of the NADPH absorption peak at 340 nm providing the spectroscopically detectable means for monitoring the assay. That is, the rate of NADPH disappearance measures the rate of glutamic acid production which, in turn, measures the rate of ammonia production.

The subject of assay [2] is microorganism ATCC 31546. Put plainly: Dry cell weight / growth, Large-scale Enzyme Production (Procedure 3). The format is cell-based, tentatively Flavobacterium filamentosum (ATCC 31546). Particulars: Procedure No. 3; glucose 1.0 wt% added, or control 0.0 wt%.
Procedure: Large-scale enzyme production was carried out using a 150-liter fermentor as follows:
First, following the same steps described in Procedure 2 above, a fresh sample of the microorganism ATCC 31546 culture which had been grown for two days on Medium No. 1 slants was transferred into 25 ml of microbial growth medium contained in a 250-ml Erlenmeyer flask. The microbial growth medium was the same as that described in Procedure 2 above. The first stage of inoculum growth in the microbial growth medium was carried out by shaking the flask at 200 rpm, 25° C. for 12 hours. A sample of the contents of the flask was thereafter microscopically inspected for culture purity. Thereafter, in the second stage of inoculum growth in the microbial growth medium, the contents of two 250-ml Erlenmeyer flasks containing first-stage culture were transferred aseptically to a 14-liter fermentor containing 10 liters of sterilized microbial growth medium having the composition described in Procedure 2 above and also containing 0.01 wt% of a polyglycol anti-foam agent sold under the tradename Polyglycol P-2000 by Dow Chemicals, Midland, MI. […] At this point, a sufficient quantity of cells was available to form an inoculum for the 150-liter fermentor. […] Dissolved oxygen concentration and pH were monitored continuously throughout the 12-hour period. […]
For assay [3], the system named is creatinine iminohydrolase. Put plainly: Creatinine iminohydrolase activity, Large-scale Enzyme Production (Procedure 3; GDH assay). The assay is classed as cell-based, ATCC 31546 (tentatively Flavobacterium filamentosum). Particulars: Procedure No. 3; glucose 1.0 wt% added, or control 0.0 wt%. As to the method:
as §2
To determine the creatinine iminohydrolase activity described in the Examples, a L-glutamic dehydrogenase, "GDH", assay method was employed. In the GDH assay method, production of ammonia from creatinine, which represents the activity of a creatinine iminohydrolase enzyme preparation,is measured using NADPH (nicotinamide-adenine dinucleotride phosphate, reduced form) in a GDH-catalyzed reaction as follows: […]

The test system of assay [4] is microorganism ATCC 31546. Put plainly: Dry cell weight, Small-scale Enzyme Production (Procedure 2). Particulars: Procedure No. 2; glucose 1.0 wt% added, or control 0.0 wt%. The assay is classed as cell-based, tentatively Flavobacterium filamentosum (ATCC 31546). As to the method:
as §1, with “The specific composition of the production medium was varied as described in the following examples. However, in each case, once the microorganism was transferred as a 2-ml inoculum to the flask containing the particular production medium of interest, the flask was shaken at 30° C., 200 rpm for 10 hours.” left out, “In addition, a 2.5 ml aliquot of the culture was centrifuged at 15,000 xg in a refrigerated centrifuge to separate the cells from the production medium. The supernatant containing the production medium was discarded. The precipitated cells were disrupted as in Procedure 4 below, and enzyme activity was assayed as described in Procedure 5 below.” left out

The mark [5] stands for this setting: carbon source at optimum concentration, control 1.0 wt% fumaric acid.

For `CC(=O)O` [Acetic Acid], in assay [1], the “creatinine iminohydrolase yield of microbial cells (in words)” value (“creatinine iminohydrolase yield” below) is “yielding only small amounts of creatinine iminohydrolase”; the “growth of the culture and enzyme production (in words)” value (from here on “growth”) is “did not support the growth of the culture or produce a detectable amount of enzyme”; the “Optimum Concentration (carbon source)” value is 0.1 Wt. %.

Regarding `C[C@H](N)C(=O)O` [Alanine], the “Creatinine Iminohydrolase Activity % of Control” value in assay [1] (setting [5]) is listed as 35 % of Control. Besides, the “Optimum Concentration (carbon source)” value in assay [1] was 1.0 Wt. %.

On to `N[C@@H](CC(=O)O)C(=O)O` [Aspartic Acid], for which, in assay [1], the “creatinine iminohydrolase yield” value is listed as “yielding only small amounts of creatinine iminohydrolase”; the “growth” value is recorded as “the culture grew well but these sources repressed enzyme synthesis”; the “Optimum Concentration (carbon source)” value turned out to be 1.0 Wt. %.

For `O=C(O)CC(O)(CC(=O)O)C(=O)O` [Citric Acid], the “Creatinine Iminohydrolase Activity % of Control” value in assay [1] (setting [5]) is recorded as 71 % of Control. Moreover, in assay [1], the “growth” value is “acceptable levels of microbial growth and enzyme production”; the “Optimum Concentration (carbon source)” value came out at 1.0 Wt. %.

`CN1CC(=O)NC1=N` [Creatinine] had an optimum concentration in assay [1] of 0.5%.

Regarding `O=C(O)/C=C/C(=O)O` [Fumaric Acid, Fumaric acid], in assay [1] (setting [5]), the “Creatinine Iminohydrolase Activity % of Control” value is recorded as 100 % of Control. Moreover, in assay [1], the “growth” value is “good enzyme production and good growth of the microorganism”; the “Optimum Concentration (carbon source)” value is 1.0 Wt. %; the optimum concentration came to 1.0%.

With `OC[C@H]1OC(O)[C@H](O)[C@@H](O)[C@@H]1O` (stereo partly drawn) [Glucose], the “Dry Cell Weight” value in assay [2] was 3.92 g/L; in assay [4] it was 3.31 g/L. In assay [3], the “Creatinine Iminohydrolase Activity” value is 720 U/liter. The “Creatinine Iminohydrolase Activity % of Control” value in assay [3] was 134 % of Control; in assay [1] (Procedure No. 2, glucose 1.0 wt% added, or control 0.0 wt%), 135 % of Control; in assay [1] (setting [5]), 51 % of Control. In addition, the “growth” value in assay [1] was “acceptable levels of microbial growth and enzyme production”. In addition, the “Optimum Concentration (carbon source)” value in assay [1] came to 1.0 Wt. %.

As to `N[C@@H](CCC(=O)O)C(=O)O` [Glutamic Acid], in assay [1], the “creatinine iminohydrolase yield” value is “yielding only small amounts of creatinine iminohydrolase”; the “growth” value is recorded as “the culture grew well but these sources repressed enzyme synthesis”; the “Optimum Concentration (carbon source)” value is given as 1.0 Wt. %.

As for `OCC(O)CO` [Glycerol], in assay [1], the “creatinine iminohydrolase yield” value is recorded as “yielding only small amounts of creatinine iminohydrolase”; the “growth” value is “did not support the growth of the culture or produce a detectable amount of enzyme”; the “Optimum Concentration (carbon source)” value was found to be 0.5 Wt. %.

In the case of `NCC(=O)O` [Glycine], in assay [1], the “creatinine iminohydrolase yield” value is reported as “yielding only small amounts of creatinine iminohydrolase”; the “growth” value was “did not support the growth of the culture or produce a detectable amount of enzyme”; the “Optimum Concentration (carbon source)” value was found to be 0.5 Wt. %.

`O=C(O)CCC(=O)C(=O)O` [Ketoglutaric Acid, α-Ketoglutaric acid]: the “Creatinine Iminohydrolase Activity % of Control” value in assay [1] (setting [5]) is 205 % of Control. In addition, in assay [1], the “growth” value is “good growth of the microorganism and produced more than twice as much enzyme as did the fumaric acid control”; the “Optimum Concentration (carbon source)” value was 1.0 Wt. %.

`CC(O)C(=O)O` (stereo not drawn) [Lactic Acid]: the “Creatinine Iminohydrolase Activity % of Control” value in assay [1] (setting [5]) is given as 8 % of Control. In assay [1], the “growth” value was “acceptable levels of microbial growth and enzyme production”; the “Optimum Concentration (carbon source)” value is 0.5 Wt. %.

Turning to `O=C(O)CC(O)C(=O)O` (stereo not drawn) [Malic Acid], in assay [1] (setting [5]), the “Creatinine Iminohydrolase Activity % of Control” value is 100 % of Control. Besides, in assay [1], the “growth” value was “acceptable levels of microbial growth and enzyme production”; the “Optimum Concentration (carbon source)” value is on record as 1.0 Wt. %.

On to `CC(=O)C(=O)O` [Pyruvic Acid], for which the “Creatinine Iminohydrolase Activity % of Control” value in assay [1] (setting [5]) is recorded as 105 % of Control. Moreover, in assay [1], the “growth” value was “supported good enzyme production although somewhat lower growth of the microorganism was obtained”; the “Optimum Concentration (carbon source)” value is listed as 0.5 Wt. %.

Turning to `O=C(O)CCC(=O)O` [Succinic Acid], the “Creatinine Iminohydrolase Activity % of Control” value in assay [1] (setting [5]) is 49 % of Control. Moreover, in assay [1], the “growth” value was “acceptable levels of microbial growth and enzyme production”; the “Optimum Concentration (carbon source)” value stood at 1.0 Wt. %.

For `OC[C@H]1O[C@@](CO)(O[C@H]2O[C@H](CO)[C@@H](O)[C@H](O)[C@H]2O)[C@@H](O)[C@@H]1O` [Sucrose], in assay [1], the “creatinine iminohydrolase yield” value is “yielding only small amounts of creatinine iminohydrolase”; the “growth” value was “did not support the growth of the culture or produce a detectable amount of enzyme”; the “Optimum Concentration (carbon source)” value is 0.5 Wt. %.

The values above are taken from US4275164A, “Process and nutrient medium for growing microorganism” (priority 1979, dated 1981).
